Values of other authors as cited in patent EP2706070A1, “Combination treatments involving antibodies to human PCSK9” (SANOFI, priority 2012, dated 2014).

Key:
[1] = elimination (ezetimibe and its glucuronide: from plasma, after oral administration); cited from earlier work
LDL-C = conditions: ezetimibe 10 mg/day added to maximal dose of statins, genotype-confirmed hoFH; cited from earlier work

Compound | half-life [1] | total reduction of LDL-C levels (LDL-C)
O=C(O)[C@H]1O[C@@H](Oc2ccc([C@@H]3[C@@H](CC[C@H](O)c4ccc(F)cc4)C(=O)N3c3ccc(F)cc3)cc2)[C@H](O)[C@@H](O)[C@@H]1O [ezetimibe-glucuronide] | approximately 22 hours | 
O=C1[C@H](CC[C@H](O)c2ccc(F)cc2)[C@@H](c2ccc(O)cc2)N1c1ccc(F)cc1 [ezetimibe] |  | 27%
